The text below walks through data of US20170094972A1, “Compounds and Compositions Having Knock-Down Activity Against Insect Pests” (priority 2015, published 2017).

Format in all cases: in vivo
The test system of one series is female mosquitoes. Put plainly: Tunnel study based on WHOPES tunnel tests with Hemotek membrane feeding device. As to the method: Based on the “WHOPES tunnel tests” (described at http://apps.who.int/iris/bitstream/10665/80270/1/9789241505277_eng.pdf), except that live guniea pig baits were replaced with a Hemotek membrane feeding device, filled with blood and kept constant at 37° C. to mimic a human host. All tests were done under standardised laboratory controlled conditions (27° C.+2° C. under subdued light). The tunnel apparatus was a 60×30×30 cm glass case open at each end and the floor was lined with wet blue roll in order to maintain humidity. A 30×30×30 cm cage, covered in untreated netting, was placed at the release end. The test nets were cut to 25×25 cm squares and fitted into cardboard frames that allow a 20×20 cm area to be exposed. Nine holes, 1 cm in diameter, were made in the netting in the pattern specified in the WHOPES test. The frames were then fitted into the tunnel one third of the way down its length. A Hemotek device, filled with blood and kept constant at 37° C. to mimic a human host, was placed in the smaller area of the glass tunnel behind the test netting, and the end of the tunnel closed with a netting screen. A human sat at the Hemotek end of the tunnels for the duration of the test. At the start of the test (13.30-14.00), 100 female mosquitoes (non-blood fed, aged 5-8 days) were introduced into the cage. Mosquitoes are free to fly in the tunnel but have to make contact with the piece of netting and locate the holes in it before passing through to reach the bait. After 7 hours (20.30-21.00) the mosquitoes were counted in each section of the tunnel. The number of mosquitoes knocked down and blood fed were recorded. Blood-feeding inhibition was assessed by comparing the proportion of blood-fed females (alive or dead) in treated and control tests. Four tunnels were run simultaneously each day, with one control containing untreated netting included with all runs. Three replicates were carried out per treatment.
(§1) In case of multiple tests, the mean value is reported.

For a further series, the system named is Anopheles stephensi. Put plainly: 6 well plate test, knockdown after 1 hour and mortality after 24 and 48 hours. As to conditions: for KD: after 1 hour. The arrangement: KD: unit not given here. As to the method: The individual wells of six (6) well tissue culture plates were treated with […] of an ethanol solution containing a test compound at a defined concentration. Once the deposits were dry, ten non-blood fed adult female Anopheles stephensi (between two to five day old) were added to each well, and sustained with a 10% sucrose solution in a cotton wool plug. Assessment of the knockdown after 1 hour (Tables B1-B10), and mortality after 24 and 48 hours (Tables B1-B4) was carried out.
as §1

Another series relates to adult female mosquitoes. Kind of series: Bottle assay based on CDC bottle assay. The method, then: Based on the “CDC bottle assay” (described at http://www.cdc.gov/malaria/resources/pdf/fsp/ir_manual/ir_cdc_bioassay_en.pdf) 1 ml of ethanol containing a test compound at a defined concentration was added to a 250 ml glass bottle and the bottles were placed on a rolling table to coat the inner surfaces as the solvent evaporated. Once dry, twenty five non-blood fed adult female mosquitoes of the appropriate species and strains (each three day old) were aspirated from the stock culture and gently blown into the exposure bottles. The lid of the bottle was replaced and the bottle placed upright out of direct sun light under standard culture conditions, nominally 28° C. and 60-80% relative humidity.
A stopwatch was started, and the assessment of the knock-down were made after 15 mins and 60 minutes. A mosquito was said to be knocked down if it was unable to stand, following the CDC definition. The bottles were replaced in an upright position when not being assessed.
After one hour the mosquitoes were carefully removed from the bottle with an aspirator and placed in a recovery cup. The mosquitoes were supplied with a 10% sucrose solution on a cotton wool bung, and stored under culture conditions. Assessments of the mortality were made after 24 hours and 48 hours (B15).
Each treatment was replicated a minimum of four times, with the mean knockdown or mortality recorded. In each study, a set of bottles was infested with a known insecticide susceptible strain of mosquitoes from the same genera as the resistant strains.

Take `CC1(C)[C@H](C(=O)O[C@H](C#N)c2cccc(Oc3ccccc3)c2)[C@@H]1C=C(Br)Br` [Deltamethrin, reference compound]: the mortality (as a rule, the share of the test organisms that died) at 5 mg/m2 in the series with female mosquitoes (24 h, Table B13, 5 mg/m2) stood at 13%. Further, the “% 1 hour KD” value in the series with female mosquitoes (Table B12, 5 mg/m2) worked out at 0%. Moreover, the “% Blood fed” value in the series with female mosquitoes (Table B12, 5 mg/m2) stood at 0%; with female mosquitoes (Table B13, 5 mg/m2), 52.77%. The “% Through net” value in the series with female mosquitoes (Table B12, 5 mg/m2) is listed as 0.93%; with female mosquitoes (Table B13, 5 mg/m2) it was 67.6%. Also, the “knockdown after 1 hour, Alone” value was determined as 20 in the series on Anopheles stephensi (Table B6, 0.03125 ppm); 40 in the series with Anopheles stephensi (Table B6, 0.0625 ppm); 40 in the series with Anopheles stephensi (Table B6, 0.125 ppm); 100 in the series on Anopheles stephensi (Table B6, 0.25 ppm); 100 in the series on Anopheles stephensi (Table B6, 0.5 ppm); 100 with Anopheles stephensi (Table B6, 1 ppm).
In the case of `CC1(C)C(C=C(Cl)Cl)C1C(=O)OCc1cccc(Oc2ccccc2)c1` (stereo not shown) [Permethrin], in the series with female mosquitoes (24 h, Table B11, Rate 10 mg/m2, 24 hours, read-out: % Mortality), the mortality at 10 mg/m2 came to 24%. For the same molecule, in the series with female mosquitoes (Table B11, Rate 10 mg/m2), the “% Blood fed” value was determined as 31%. Further, the 24 hr mort was 0.0 with Anopheles stephensi (Table B1, 0.0625 ppm alone); 3.3 in the series on Anopheles stephensi (Table B1, 0.125 ppm alone); 16.7 with Anopheles stephensi (Table B1, 0.25 ppm alone); 23.3 with Anopheles stephensi (Table B1, 0.5 ppm alone); 40.0 in the series with Anopheles stephensi (Table B1, 1 ppm alone); 66.7 in the series on Anopheles stephensi (Table B1, 2 ppm alone). Moreover, the 24 hr mort with Anopheles stephensi (Table B2, 0.0625 ppm alone) was 0.0; in the series on Anopheles stephensi (Table B2, 0.125 ppm alone) it was 0.0; in the series on Anopheles stephensi (Table B2, 0.25 ppm alone), 10.0; with Anopheles stephensi (Table B2, 0.5 ppm alone), 30.0; with Anopheles stephensi (Table B2, 1 ppm alone), 40.0; in the series on Anopheles stephensi (Table B2, 2 ppm alone) it was 80.0. Besides, the 48 hr mort turned out to be 0.0 in the series with Anopheles stephensi (Table B1, 0.0625 ppm alone); 0.0 in the series on Anopheles stephensi (Table B1, 0.125 ppm alone); 20.0 in the series with Anopheles stephensi (Table B1, 0.25 ppm alone); 30.0 in the series with Anopheles stephensi (Table B1, 0.5 ppm alone); 46.7 in the series on Anopheles stephensi (Table B1, 1 ppm alone); 80.0 in the series with Anopheles stephensi (Table B1, 2 ppm alone). The 48 hr mort in the series on Anopheles stephensi (Table B2, 0.0625 ppm alone) worked out at 0.0; with Anopheles stephensi (Table B2, 0.125 ppm alone), 0.0; in the series with Anopheles stephensi (Table B2, 0.25 ppm alone) it was 10.0; with Anopheles stephensi (Table B2, 0.5 ppm alone) it was 50.0; in the series on Anopheles stephensi (Table B2, 1 ppm alone) it was 70.0; in the series on Anopheles stephensi (Table B2, 2 ppm alone) it was 80.0. Also, the KD with Anopheles stephensi (Table B1, 0.0625 ppm alone) amounted to 0.0; with Anopheles stephensi (Table B1, 0.125 ppm alone), 0.0; in the series on Anopheles stephensi (Table B1, 0.25 ppm alone), 0.0; in the series on Anopheles stephensi (Table B1, 0.5 ppm alone) it was 0.0; with Anopheles stephensi (Table B1, 1 ppm alone), 10.0; with Anopheles stephensi (Table B1, 2 ppm alone), 13.3. Besides, the KD with Anopheles stephensi (Table B2, 0.0625 ppm alone) was 0.0; in the series on Anopheles stephensi (Table B2, 0.125 ppm alone) it was 0.0; with Anopheles stephensi (Table B2, 0.25 ppm alone) it was 0.0; with Anopheles stephensi (Table B2, 0.5 ppm alone), 0.0; with Anopheles stephensi (Table B2, 1 ppm alone) it was 0.0; with Anopheles stephensi (Table B2, 2 ppm alone), 0.0. Also, in the series on adult female mosquitoes (Table B15, rates not given), the “24 hour % mort” value was 0%. Besides, in the series with adult female mosquitoes (Table B15, rates not given), the “48 hour % mort” value worked out at 0%. For the same molecule, the “% 1 hour KD” value with adult female mosquitoes (Table B15, rates not given) was 100%; with adult female mosquitoes (Table B16, 1ug/bottle) it was 100%. Besides, in the series on adult female mosquitoes (Table B16, 1ug/bottle), the “% 24 hour mortality” value was found to be 0%.
On to `COC(=O)N(C(=O)N1CO[C@@]2(C(=O)OC)Cc3cc(Cl)ccc3C2=N1)c1ccc(OC(F)(F)F)cc1` [Indoxacarb], for which the “% 24 hour mortality” value in the series with female mosquitoes (Table B14, 20 mg/m2) came to 7.6%. Also, the “% Blood fed” value in the series with female mosquitoes (Table B14, 20 mg/m2) stood at 31.4%. In addition, the 24 hr mort in the series on Anopheles stephensi (Table B4, 12.5 ppm alone) is 0.0; in the series on Anopheles stephensi (Table B4, 25 ppm alone), 0.0; in the series with Anopheles stephensi (Table B4, 50 ppm alone) it was 0.0; with Anopheles stephensi (Table B4, 100 ppm alone), 0.0. Besides, the 48 hr mort with Anopheles stephensi (Table B4, 12.5 ppm alone) is 0.0; in the series with Anopheles stephensi (Table B4, 25 ppm alone) it was 0.0; with Anopheles stephensi (Table B4, 50 ppm alone), 0.0; in the series with Anopheles stephensi (Table B4, 100 ppm alone), 0.0. Besides, the KD is 0.0 on Anopheles stephensi (Table B4, 12.5 ppm alone); 0.0 on Anopheles stephensi (Table B4, 25 ppm alone); 0.0 on Anopheles stephensi (Table B4, 50 ppm alone); 0.0 on Anopheles stephensi (Table B4, 100 ppm alone). Moreover, the “knockdown after 1 hour, Alone” value is 0 in the series on Anopheles stephensi (Table B7, 25 ppm); 0 in the series with Anopheles stephensi (Table B7, 50 ppm); 0 in the series with Anopheles stephensi (Table B7, 100 ppm); 0 in the series on Anopheles stephensi (Table B7, 200 ppm).
As for `N#CCNC(=O)c1cnccc1C(F)(F)F` [Flonicamid], in the series with adult female mosquitoes (Table B15, rates not given), the “24 hour % mort” value is listed as 0%, the “48 hour % mort” value came to 0% and the “% 1 hour KD” value worked out at 0%.
